According to patent US8466171B2, “Fused heterocyclic compounds useful as modulators of nuclear hormone receptor function” (Bristol-Myers Squibb Company, priority 2007, dated 2013):
Residue numbers refer to the chain shown, from its start.

What was measured:
wild type AR = target: T1, wild type AR (Homo sapiens, UniProt P10275); test: AR Binding Assay (whole cell, MDA-MB-453, competition with [3H]-DHT); settings: MDA-MB-453 cells, competition with 2 nM [3H]-DHT, Cheng-Prusoff
T1 sequence (P10275 1-920 Q868H): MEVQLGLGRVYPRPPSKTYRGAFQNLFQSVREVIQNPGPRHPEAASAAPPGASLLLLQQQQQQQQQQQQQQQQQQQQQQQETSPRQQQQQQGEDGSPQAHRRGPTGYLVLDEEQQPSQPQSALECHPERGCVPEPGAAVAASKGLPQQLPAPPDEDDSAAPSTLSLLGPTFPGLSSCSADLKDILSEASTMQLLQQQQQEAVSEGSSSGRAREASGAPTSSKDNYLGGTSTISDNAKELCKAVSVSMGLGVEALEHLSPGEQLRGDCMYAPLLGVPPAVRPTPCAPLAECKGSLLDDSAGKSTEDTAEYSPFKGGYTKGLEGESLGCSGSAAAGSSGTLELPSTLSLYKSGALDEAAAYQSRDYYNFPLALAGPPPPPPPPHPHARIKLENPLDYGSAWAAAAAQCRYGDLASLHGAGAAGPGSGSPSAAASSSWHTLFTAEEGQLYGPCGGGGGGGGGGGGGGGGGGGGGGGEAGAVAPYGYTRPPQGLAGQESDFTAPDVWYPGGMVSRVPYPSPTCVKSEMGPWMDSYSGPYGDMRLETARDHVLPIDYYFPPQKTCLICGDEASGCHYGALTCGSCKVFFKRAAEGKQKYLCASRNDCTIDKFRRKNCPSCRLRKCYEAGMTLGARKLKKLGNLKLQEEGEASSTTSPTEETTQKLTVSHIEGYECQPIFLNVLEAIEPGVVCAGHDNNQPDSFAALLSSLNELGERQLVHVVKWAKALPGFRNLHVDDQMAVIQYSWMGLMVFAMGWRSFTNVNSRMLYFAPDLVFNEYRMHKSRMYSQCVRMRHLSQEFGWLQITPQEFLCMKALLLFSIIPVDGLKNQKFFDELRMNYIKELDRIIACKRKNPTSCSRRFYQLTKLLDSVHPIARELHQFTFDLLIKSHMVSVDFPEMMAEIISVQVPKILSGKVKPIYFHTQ
Method: For the whole cell binding assay, human breast adenocarcinoma MDA-MB-453 cells (American Type Culture Collection, Rockville, Md., ATCC #: HTB-131), expressing a functional endogenous wild type AR, are grown to near confluency in T-225 tissue culture flasks containing Dulbecco's Modified Eagle Medium (DMEM) (Mediatech CAT #45000-668) supplemented with 10% fetal bovine serum (FBS) (Invitrogen/GIBCO Life Science). In order to remove any endogenous ligand that might be complexed with the receptor in the cells, the tissue culture media is removed and the cells are incubated overnight at 37° C. in serum-free DMEM. The next day, cells are rinsed with magnesium and calcium free Phosphate Buffered Saline (PBS) (Invitrogen/GIBCO Life Science), harvested using Cell Stripper Buffer (Mediatech) and re-suspended in serum-free DMEM to achieve a final assay concentration of 4×10^5 cells/well of a 96-well assay plate. […] After the remaining media is removed, cells are washed three times with PBS and harvested onto UniFilter GF/B plates (PerkinElmer).
Two replicates are used for each sample. After 90 minutes at room temperature, cells are harvested by filtering through a GF/B filter plate (PerkinElmer) followed by washing with ice-cold 1×PBS (without calcium and magnesium) to remove unbound label. […] After correcting for non-specific binding, IC50 values are determined. The IC50 value is defined as the concentration of competing ligand needed to reduce specific binding by 50%. […] The Ki values are determined by application of the Cheng-Prusoff equation to the IC50 values where: […]
See e.g., D. Rodbard, Mathematics and Statistics of Ligand Assays: An Illustrated Guide: In: J. Langon and J. J. Clapp, eds., Ligand Assay, Masson Publishing U.S.A., Inc., New York, pp. 45-99 (1981).

androgen receptor (AR) = target: T2, androgen receptor (AR) (Homo sapiens, UniProt P10275); test: MDA-MB-453 Androgen Receptor Transactivation Assay; assay type: cell-based; settings: MDA-MB-453 cells, PSA-Luc reporter, 3 nM DHT, 48 hour incubation
T2 sequence (P10275 1-920): T1 sequence (P10275 1-920 Q868H) with H868Q
Source text: Compounds can be tested in a cell based transactivation assay used to measure the antagonism of androgen receptor (AR) transcriptional activity. […] The human breast adenocarcinoma MDA-MB-453 cell line (American Type Culture Collection, Rockville, Md., ATCC#: HTB-131), expressing a functional endogenous wild type AR, was transiently transfected with a reporter plasmid and tested for AR dependent transactivation activity in the absence or presence of test compounds. The pGL3 PSA-Luc reporter plasmid is comprised of the cDNA for the firefly luciferase gene and the upstream promoter sequences containing the androgen response elements (AREs) of the prostate specific antigen (PSA). This plasmid functions as a reporter for the transcription-modulating activity of the AR. In order to detect antagonists, the transactivation assay is conducted in the presence of constant concentration of the natural AR hormone (DHT) to induce a defined reporter signal. Addition of increasing concentrations of the suspected antagonist will decrease the reporter signal (luciferase activity).
MDA-MB-453 and 22 RV1 cells were maintained in DMEM (Cellgro, Cat. #10-014-CM) or RPMI 1640 (Gibco Cat. #11875-085) respectively and supplemented with 10% FBS (Invitrogen/GIBCO Life Science). Cells were bulk transfected in flasks with 1.3 ug/ml pGL3 PSA-Luc plasmid by using the Lipofectamine 2000 Reagent (Invitrogen, Cat. #11668-019) and serum-free Opti-MEM I media (Invitrogen, Cat#31985-070) according to the manufacturer's optimized conditions. Transfection was conducted at 37° C. with 5% CO2 for 16-18 hours. Following transfection, cells are washed, treated with trypsin, counted, and seeded in a 96-well plate at 30,000 cells per well in DMEM containing 10% Charcoal/Dextran Treated Fetal Bovine Serum (Gibco Cat. #11054-020) for MDA-MB-453 cells or RPMI 1640 (Gibco Cat. #110835) containing 10% FBS (Invitrogen/GIBCO Life Science) for 22 RV1 cells.
Following transfection, cells were incubated in the absence (blank) or presence (control) of 3 nM DHT (Sigma, Cat. #A-8380) and in the presence or absence of the standard antiandrogen bicalutamide or test compounds ranging in concentrations from 10^−10 to 10^−5M. Duplicates were used for each sample. The compound dilutions were performed by the Tecan Genesis (Tecan, Triangle Park, N.C.). After a 48 hour incubation, luciferase activity was measured using the Steady-Glo Luciferase Assay System (Promega, Cat. #E2550) according to manufacturer's specifications and luminescence was measured on a Packard TopCount (PerkinElmer). For each luciferase sample reading, the percent control (in absence of compounds) was calculated as: % Control=100×[averagesample−averageblank]/[averagecontrol−averageblank] Data was plotted and the IC50 value was defined as the concentration of compound that inhibited 50% of the luciferase activity for the controls.

## N#Cc1ccc(N2C[C@@H]3[C@@H]([C@@H]4O[C@H]3C[C@@H]4O)S2(=O)=O)cc1C(F)(F)F (single isomer, unassigned) [Example 38ii]
Wild type AR
  Ki: 10 nM
Androgen receptor (AR)
  IC50: 141 nM

## N#Cc1ccc(N2CC3C([C@@H]4CC[C@H]3O4)S2(=O)=O)cc1C(F)(F)F (stereo in doubt) [Example 6, 4-((1S,2R,6R,7R)-3,3-dioxido-10-oxa-3-thia-4-azatricyclo[5.2.1.0^2,6]dec-4-yl)-2-(trifluoromethyl)benzonitrile]
Wild type AR
  Ki: 23 nM
Androgen receptor (AR)
  IC50: 198 nM

## N#Cc1ccc(N2C[C@H]3[C@@H]4O[C@@H](C[C@H]4O)[C@H]3S2(=O)=O)cc1C(F)(F)F (racemic) [Example 10iii]
Wild type AR
  Ki: 568 nM
Androgen receptor (AR)
  IC50: 8320 nM

## C[C@@]12C=C[C@@H](O1)[C@@H]1CN(c3ccc(C#N)c(C(F)(F)F)c3)S(=O)(=O)[C@@H]12 (racemic) [Example 21ii, rac-4-((1R,2R,6R,7S)-1-methyl-3,3-dioxido-10-oxa-3-thia-4-azatricyclo[5.2.1.0^2,6]dec-8-en-4-yl)-2-(trifluoromethyl)benzonitrile]
Wild type AR
  Ki: 145 nM
Androgen receptor (AR)
  IC50: 1110 nM

## N#Cc1ccc(N2C[C@@H]3[C@@H]4O[C@@H](C[C@@H]4O)[C@@H]3S2(=O)=O)cc1C(F)(F)F (single isomer, unassigned) [Example 37i]
Wild type AR
  Ki: 10 nM
Androgen receptor (AR)
  IC50: 154 nM

## N#Cc1ccc(N2C[C@H]3[C@H]([C@H]4O[C@@H]3C[C@H]4F)S2(=O)=O)cc1C(F)(F)F [Example 14, 4-((1S,2R,6R,7R,9R)-9-fluoro-3,3-dioxido-10-oxa-3-thia-4-azatricyclo[5.2.1.0^2,6]dec-4-yl)-2-(trifluoromethyl)benzonitrile]
Wild type AR
  Ki: 11 nM
Androgen receptor (AR)
  IC50: 144 nM

## COC(=O)N[C@@H]1C[C@@H]2O[C@H]1[C@@H]1CN(c3ccc(C#N)c(C(F)(F)F)c3)S(=O)(=O)[C@@H]12 (racemic) [Example 26i, methyl rac-((1R,2R,6R,7R,8S)-4-(4-cyano-3-(trifluoromethyl)phenyl)-3,3-dioxido-10-oxa-3-thia-4-azatricyclo[5.2.1.0^2,6]dec-8-yl)carbamate]
Wild type AR
  Ki: 266 nM
Androgen receptor (AR)
  IC50: 3130 nM

## N#Cc1ccc(N2C[C@H]3[C@@H]4O[C@@H](C[C@H]4O)[C@H]3S2(=O)=O)cc1C(F)(F)F (racemic) [Example 10ii, rac-4-((1R,2R,6R,7R,8S)-8-hydroxy-3,3-dioxido-10-oxa-3-thia-4-azatricyclo[5.2.1.0^2,6]dec-4-yl)-2-(trifluoromethyl)benzonitrile]
Wild type AR
  Ki: 745 nM
Androgen receptor (AR)
  IC50: 7500 nM

## C[C@]12[C@H](CN(c3ccc(C#N)c(C(F)(F)F)c3)S1(=O)=O)[C@@H]1C=C[C@H]2O1 [Example 4, 4-((1R,2R,6R,7S)-2-methyl-3,3-dioxido-10-oxa-3-thia-4-azatricyclo[5.2.1.0^2,6]dec-8-en-4-yl)-2-(trifluoromethyl)benzonitrile]
Wild type AR
  Ki: 221 nM
Androgen receptor (AR)
  IC50: 1420 nM

## COC(=O)N[C@H]1C[C@@H]2O[C@H]1[C@H]1CN(c3ccc(C#N)c(C(F)(F)F)c3)S(=O)(=O)[C@H]12 [Example 40i, methyl((1S,2R,6R,7S,8S)-4-(4-cyano-3-(trifluoromethyl)phenyl)-3,3-dioxido-10-oxa-3-thia-4-azatricyclo[5.2.1.0^2,6]dec-8-yl)carbamate]
Wild type AR
  Ki: 46 nM
Androgen receptor (AR)
  IC50: 977 nM

## N#Cc1ccc(N2C[C@@H]3[C@@H]([C@@H]4C=C[C@H]3O4)S2(=O)=O)cc1C(F)(F)F (racemic) [Example 1ii]
Wild type AR
  Ki: 29 nM
Androgen receptor (AR)
  IC50: 108 nM

## N#Cc1ccc(N2C[C@H]3[C@H]4O[C@H]([C@@H]5O[C@@H]54)[C@H]3S2(=O)=O)cc1C(F)(F)F [Example 9, 4-((1R,2S,6S,7R,8R,10R)-3,3-dioxido-9,11-dioxa-3-thia-4-azatetracyclo[5.3.1.0^2,6.0^8,10]undec-4-yl)-2-(trifluoromethyl)benzonitrile]
Wild type AR
  Ki: 92 nM
Androgen receptor (AR)
  IC50: 2640 nM
